Experimental data published in PubChem BioAssay AID248 (DTP/NCI, 2004).
Where “and” joins values, the source holds several entries; their conditions need not be identical. Equal values may be shown once. Toxic doses and inconclusive results are not listed.

Tested on: L1210 leukemia ip in BDF1 mice, survival T/C
Assay: NCI In Vivo Anticancer Drug Screen. Data for tumor model L1210 Leukemia (intraperitoneal) in B6D2F1 (BDF1) mice
Conditions: endpoint: mean survival time, higher = longer survival
Outline: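 Value reflects the ratio of survival in compound-treated mice to survival in vehicle-treated controls, with both groups carrying the same transplanted tumor.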

[1] = dose: 100.0 mg/kg/injection, schedule: Q01DX009 (ip), vehicle: Klucel (hydroxypropylcellulose) (HPC)
[2] = dose: 100.0 mg/kg/injection, schedule: Q04DX003 (ip), vehicle: saline
[3] = dose: 200.0 mg/kg/injection, schedule: Q01DX009 (ip), vehicle: Klucel (hydroxypropylcellulose) (HPC)
[4] = dose: 200.0 mg/kg/injection, schedule: Q04DX003 (ip), vehicle: saline
[5] = dose: 400.0 mg/kg/injection, schedule: Q04DX003 (ip), vehicle: saline
[6] = dose: 100.0 mg/kg/injection, schedule: Q04DX003 (ip), vehicle: saline with Tween-80
[7] = dose: 200.0 mg/kg/injection, schedule: Q04DX003 (ip), vehicle: saline with Tween-80
[8] = dose: 400.0 mg/kg/injection, schedule: Q04DX003 (ip), vehicle: saline with Tween-80
[9] = dose: 100.0 mg/kg/injection, schedule: Q04DX003 (ip), vehicle: Klucel (hydroxypropylcellulose) (HPC)
[10] = dose: 100.0 mg/kg/injection, schedule: Q01DX001 (ip), vehicle: saline
[11] = dose: 200.0 mg/kg/injection, schedule: Q01DX001 (ip), vehicle: saline
[12] = dose: 400.0 mg/kg/injection, schedule: Q01DX001 (ip), vehicle: saline
[13] = dose: 100.0 mg/kg/injection, schedule: Q01DX009 (ip), vehicle: saline

## COc1ccc(NC(=O)Nc2ccc(Cl)cc2C)cc1
dose: 100.0 mg/kg/injection, schedule: Q01DX009 (sc), vehicle: olive oil, sesame oil, peanut oil
  T/C: 100 % of control
dose: 100.0 mg/kg/injection, schedule: Q04DX003 (sc), vehicle: olive oil, sesame oil, peanut oil
  T/C: 101 % of control
dose: 200.0 mg/kg/injection, schedule: Q01DX009 (sc), vehicle: olive oil, sesame oil, peanut oil
  T/C: 102 % of control
dose: 200.0 mg/kg/injection, schedule: Q04DX003 (sc), vehicle: olive oil, sesame oil, peanut oil
  T/C: 100 % of control
dose: 400.0 mg/kg/injection, schedule: Q01DX009 (sc), vehicle: olive oil, sesame oil, peanut oil
  T/C: 96 % of control
dose: 400.0 mg/kg/injection, schedule: Q04DX003 (sc), vehicle: olive oil, sesame oil, peanut oil
  T/C: 98 % of control

## CCOC(=O)c1ccc(NC(=O)Sc2ccccc2C)cc1
dose: 100.0 mg/kg/injection, schedule: Q04DX002 (ip), vehicle: saline
  T/C: 120 % of control
dose: 200.0 mg/kg/injection, schedule: Q04DX002 (ip), vehicle: saline
  T/C: 120 % of control
dose: 400.0 mg/kg/injection, schedule: Q04DX002 (ip), vehicle: saline
  T/C: 87 % of control

## Cc1ccc(N2CSC(=S)N(c3ccc(C)cc3)C2)cc1
[1]
  T/C: 101 % of control
[2]
  T/C: 94 % of control
[3]
  T/C: 96 % of control
[4]
  T/C: 89 % of control
dose: 400.0 mg/kg/injection, schedule: Q01DX009 (ip), vehicle: Klucel (hydroxypropylcellulose) (HPC)
  T/C: 95 % of control
[5]
  T/C: 88 % of control

## O=C(O)c1cccc2cccc(C(=O)c3cccs3)c12
[6]
  T/C: 91 % of control
[7]
  T/C: 98 % of control
[8]
  T/C: 91 % of control

## O=C(COCC(=O)N/N=C/c1ccccc1Cl)N/N=C\c1ccccc1Cl
[1]
  T/C: 93 % of control
[3]
  T/C: 95 % of control

## CC(C)=CCC/C(C)=C/C#N
dose: 100.0 mg/kg/injection, schedule: Q01DX001 (ip), vehicle: carboxymethylcellulose (CMC)
  T/C: 100 % of control
dose: 200.0 mg/kg/injection, schedule: Q01DX001 (ip), vehicle: carboxymethylcellulose (CMC)
  T/C: 111 % of control
dose: 400.0 mg/kg/injection, schedule: Q01DX001 (ip), vehicle: carboxymethylcellulose (CMC)
  T/C: 94 % of control

## CCOc1ccc([N+](=O)[O-])cc1CNCCCl
dose: 25.0 mg/kg/injection, schedule: Q04DX003 (ip), vehicle: Klucel (hydroxypropylcellulose) (HPC)
  T/C: 102 % of control
dose: 50.0 mg/kg/injection, schedule: Q04DX003 (ip), vehicle: Klucel (hydroxypropylcellulose) (HPC)
  T/C: 98 % of control
[9]
  T/C: 98 % of control and 104 % of control

## COC(=N)Cc1ccc(F)cc1
dose: 75.0 mg/kg/injection, schedule: Q01DX009 (ip), vehicle: saline with Tween-80
  T/C: 111 % of control
dose: 150.0 mg/kg/injection, schedule: Q01DX009 (ip), vehicle: saline with Tween-80
  T/C: 112 % of control
dose: 300.0 mg/kg/injection, schedule: Q01DX009 (ip), vehicle: saline with Tween-80
  T/C: 112 % of control

## Cc1nc(N)c2nc(-c3ccc(N(CCO)CCO)cc3)c(N)nc2n1
[10]
  T/C: 98 % of control
[11]
  T/C: 95 % of control
[12]
  T/C: 89 % of control

## O=C(NCCCNC(=O)Nc1ccc(C2=NCCCN2)cc1)Nc1ccc(C2=NCCCN2)cc1
dose: 10.0 mg/kg/injection, schedule: Q01DX015 (ip), vehicle: methylcellulose (MC)
  T/C: 103 % of control
dose: 20.0 mg/kg/injection, schedule: Q01DX015 (ip), vehicle: methylcellulose (MC)
  T/C: 103 % of control

## CCC(=O)Nc1cccc(OC(=O)NC(C)CC)c1 (stereo unspecified)
[6]
  T/C: 93 % of control
[7]
  T/C: 97 % of control
[8]
  T/C: 92 % of control

## Cc1ccc(NC(=O)OCC(F)(F)C(F)(F)C(F)(F)F)c(NC(=O)OCC(F)(F)C(F)(F)C(F)(F)F)c1
dose: 100.0 mg/kg/injection, schedule: Q04DX002 (ip), vehicle: saline with Tween-80
  T/C: 98 % of control
dose: 200.0 mg/kg/injection, schedule: Q04DX002 (ip), vehicle: saline with Tween-80
  T/C: 98 % of control
dose: 400.0 mg/kg/injection, schedule: Q04DX002 (ip), vehicle: saline with Tween-80
  T/C: 112 % of control

## O=[N+]([O-])c1ccc(C=Nc2cccc3ccccc23)s1
[9]
  T/C: 95 % of control
dose: 200.0 mg/kg/injection, schedule: Q04DX003 (ip), vehicle: Klucel (hydroxypropylcellulose) (HPC)
  T/C: 95 % of control
dose: 400.0 mg/kg/injection, schedule: Q04DX003 (ip), vehicle: Klucel (hydroxypropylcellulose) (HPC)
  T/C: 92 % of control

## N#CSCCOCCSC#N
dose: 5.0 mg/kg/injection, schedule: Q01DX001 (ip), vehicle: saline
  T/C: 108 % of control
dose: 10.0 mg/kg/injection, schedule: Q01DX001 (ip), vehicle: saline
  T/C: 96 % of control

## O=C(Cn1cc(F)c(=O)[nH]c1=O)c1ccco1
[13]
  T/C: 90 % of control
[2]
  T/C: 96 % of control
dose: 200.0 mg/kg/injection, schedule: Q01DX009 (ip), vehicle: saline
  T/C: 91 % of control
[4]
  T/C: 93 % of control
dose: 400.0 mg/kg/injection, schedule: Q01DX009 (ip), vehicle: saline
  T/C: 88 % of control
[5]
  T/C: 88 % of control

## NCCCn1cnc2c(N)ncnc21
[13]
  T/C: 94 % of control
[2]
  T/C: 91 % of control
[4]
  T/C: 98 % of control

## CCOC(=O)c1c(NC(=O)C(F)(F)F)[nH]c(SSc2[nH]c(NC(=O)C(F)(F)F)c(C(=O)OCC)c2C(=O)OCC)c1C(=O)OCC
dose: 25.0 mg/kg/injection, schedule: Q01DX009 (ip), vehicle: saline with Tween-80
  T/C: 97 % of control
dose: 50.0 mg/kg/injection, schedule: Q01DX009 (ip), vehicle: saline with Tween-80
  T/C: 102 % of control
dose: 100.0 mg/kg/injection, schedule: Q01DX009 (ip), vehicle: saline with Tween-80
  T/C: 97 % of control
[6]
  T/C: 105 % of control
[7]
  T/C: 86 % of control

## CC(C)(C)C(=O)CC(=O)C(C)(C)C.CC(C)(C)C(=O)CC(=O)C(C)(C)C.CC(C)(C)C(=O)CC(=O)C(C)(C)C.[Tb]
[6]
  T/C: 93 % of control
[7]
  T/C: 93 % of control
[8]
  T/C: 94 % of control

## S=C(Nc1ccc(C2=NCCN2)cc1)c1ccc(C(=S)Nc2ccc(C3=NCCN3)cc2)cc1
dose: 1.0 mg/kg/injection, schedule: Q01DX Z (ip), vehicle: saline
  T/C: 108 % of control
dose: 2.0 mg/kg/injection, schedule: Q01DX Z (ip), vehicle: saline
  T/C: 108 % of control
dose: 4.0 mg/kg/injection, schedule: Q01DX Z (ip), vehicle: saline
  T/C: 124 % of control
dose: 15.0 mg/kg/injection, schedule: Q01DX Z (ip), vehicle: carboxymethylcellulose (CMC)
  T/C: 219 % of control
dose: 30.0 mg/kg/injection, schedule: Q01DX Z (ip), vehicle: carboxymethylcellulose (CMC)
  T/C: 182 % of control
dose: 30.0 mg/kg/injection, schedule: Q01DX Z (oral), vehicle: saline
  T/C: 103 % of control
dose: 60.0 mg/kg/injection, schedule: Q01DX Z (ip), vehicle: carboxymethylcellulose (CMC)
  T/C: 171 % of control
dose: 60.0 mg/kg/injection, schedule: Q01DX Z (oral), vehicle: saline
  T/C: 101 % of control
dose: 120.0 mg/kg/injection, schedule: Q01DX Z (oral), vehicle: saline
  T/C: 98 % of control
dose: 240.0 mg/kg/injection, schedule: Q01DX Z (oral), vehicle: saline
  T/C: 101 % of control
dose: 480.0 mg/kg/injection, schedule: Q01DX Z (oral), vehicle: saline
  T/C: 101 % of control
dose: 960.0 mg/kg/injection, schedule: Q01DX Z (oral), vehicle: saline
  T/C: 101 % of control

## CC(C)(C)NCCCN1CC1(C)C (stereo unspecified)
dose: 6.25 mg/kg/injection, schedule: Q01DX009 (ip), vehicle: saline
  T/C: 90 % of control
dose: 6.25 mg/kg/injection, schedule: Q04DX003 (ip), vehicle: saline
  T/C: 103 % of control
dose: 12.5 mg/kg/injection, schedule: Q01DX009 (ip), vehicle: saline
  T/C: 93 % of control
dose: 12.5 mg/kg/injection, schedule: Q04DX003 (ip), vehicle: saline
  T/C: 114 % of control
dose: 25.0 mg/kg/injection, schedule: Q01DX009 (ip), vehicle: saline
  T/C: 93 % of control and 121 % of control
dose: 25.0 mg/kg/injection, schedule: Q04DX003 (ip), vehicle: saline
  T/C: 117 % of control
[10]
  T/C: 110 % of control

## Cc1cc(=O)[nH]c(=S)[nH]1
dose: 100.0 mg/kg/injection, schedule: Q01DX001 (ip), vehicle: Klucel (hydroxypropylcellulose) (HPC)
  T/C: 90 % of control
dose: 200.0 mg/kg/injection, schedule: Q01DX001 (ip), vehicle: Klucel (hydroxypropylcellulose) (HPC)
  T/C: 101 % of control
dose: 400.0 mg/kg/injection, schedule: Q01DX001 (ip), vehicle: Klucel (hydroxypropylcellulose) (HPC)
  T/C: 92 % of control

## COC(=O)C1OC1c1cc(Cl)ccc1OC (stereo unspecified)
[10]
  T/C: 102 % of control
[11]
  T/C: 94 % of control
[12]
  T/C: 94 % of control

## CN(C)CCNC(=O)CN
[10]
  T/C: 102 % of control
[11]
  T/C: 107 % of control
[12]
  T/C: 107 % of control

## CCN(CC)CC[N-]CCN(CC)CC.[Cl][Pt]
[10]
  T/C: 97 % of control
